For series [1], the system named is Monochoria vaginalis, Presl. Description: Preemergence weed control under flooded paddy conditions, MOOVA (Monochoria). As to conditions: preemergence weeds, flooded paddy, rated three to four weeks after treatment. The format is in vivo.
For series [2], the system named is Echinochloa oryzoides (Ard.) Fritsch. Description: Preemergence weed control under flooded paddy conditions, ECHORC (Watergrass (Calif.)). The format is in vivo. As to conditions: preemergence weeds, flooded paddy, rated three to four weeks after treatment.
Series [3] concerns Sagittaria pygmaea, L. Description: Preemergence weed control under flooded paddy conditions, SAGPY (Arrowhead (Pygmaea)). It is filed as in vivo. The conditions noted are these: preemergence weeds, flooded paddy, rated three to four weeks after treatment.
Series [4] relates to Oryza sativa, (L.) Tebonnet. Description: Rice tolerance to post-transplant applications under flooded paddy conditions (Example 187), ORYSAT (Rice, Tebonnet). The conditions noted are these: rated three to four weeks after treatment.
In series [5] the test system is Cyperus serotinus, Rottb. Description: Preemergence weed control under flooded paddy conditions, CYPSE (Flatsedge). It is filed as in vivo. The conditions noted are these: preemergence weeds, rated three to four weeks after treatment.
Series [6] has as its system Cyperus iria. Description: Preemergence weed control under flooded paddy conditions, CYPIR (Rice Flatsedge). It is filed as in vivo. The conditions noted are these: preemergence weeds, flooded paddy, rated three to four weeks after treatment.
Note: meaning of each grade not given here.

For the compound `COC(=O)COc1cccc(-c2nsc3ccc(-n4c(=O)cc(C(F)(F)F)n(C)c4=O)cc23)c1` [Example 332, Acetic acid, {m-{5-[3,6-dihydro-3-methyl-2,6-dioxo-4-(trifluoromethyl)-1(2H)-pyrimidinyl]-1,2-benzisothiazol-3-yl}phenoxy}-, methyl ester], the “herbicidal effect rating, MOOVA” value in series [1] (Rate 0.0320 kg/ha), in series [1] (Rate 0.0620 kg/ha), in series [1] (Rate 0.1250 kg/ha) and in series [1] (Rate 0.2500 kg/ha) was 9.0 throughout. Also, the “herbicidal effect rating, ECHORC” value worked out at 6.5 in series [2] (Rate 0.0320 kg/ha), 8.5 in series [2] (Rate 0.0620 kg/ha), 9.0 in series [2] (Rate 0.1250 kg/ha) and 9.0 in series [2] (Rate 0.2500 kg/ha). Moreover, the “herbicidal effect rating, SAGPY” value in series [3] (Rate 0.0320 kg/ha) is listed as 3.0; in series [3] (Rate 0.0620 kg/ha), 3.5; in series [3] (Rate 0.1250 kg/ha), 6.5; in series [3] (Rate 0.2500 kg/ha), 9.0. The “herbicidal effect rating ORYSAT” value in series [4] (Rate 0.0320 kg/ha) was determined as 5.5; in series [4] (Rate 0.0620 kg/ha), 5.5; in series [4] (Rate 0.1250 kg/ha) it was 5.5; in series [4] (Rate 0.2500 kg/ha), 7.5. Besides, the “herbicidal effect rating, CYPSE” value turned out to be 4.0 in series [5] (Rate 0.0320 kg/ha), 4.5 in series [5] (Rate 0.0620 kg/ha), 4.5 in series [5] (Rate 0.1250 kg/ha) and 7.5 in series [5] (Rate 0.2500 kg/ha). In addition, the “herbicidal effect rating, CYPIR” value in series [6] (Rate 0.0320 kg/ha), in series [6] (Rate 0.0620 kg/ha), in series [6] (Rate 0.1250 kg/ha) and in series [6] (Rate 0.2500 kg/ha) was 9.0 throughout.
`CN(O)C(=O)COc1ccccc1-c1nsc2ccc(-n3c(=O)cc(C(F)(F)F)n(C)c3=O)cc12` [Example 336, Acetohydroxamic acid, 2-{o-{5-[3,6-dihydro-3-methyl-2,6-dioxo-4-(trifluoromethyl)-1(2H)-pyrimidinyl]-1,2-benzisothiazol-3-yl}phenoxy}-N-methyl-]: the “herbicidal effect rating, MOOVA” value in series [1] (Rate 0.0320 kg/ha), in series [1] (Rate 0.0620 kg/ha), in series [1] (Rate 0.1250 kg/ha) and in series [1] (Rate 0.2500 kg/ha) was 9.0 throughout. In addition, the “herbicidal effect rating, ECHORC” value in series [2] (Rate 0.0320 kg/ha) is reported as 6.5; in series [2] (Rate 0.0620 kg/ha) it was 9.0; in series [2] (Rate 0.1250 kg/ha), 9.0; in series [2] (Rate 0.2500 kg/ha), 9.0. Further, the “herbicidal effect rating, SAGPY” value in series [3] (Rate 0.0320 kg/ha) is on record as 0.0; in series [3] (Rate 0.0620 kg/ha), 0.0; in series [3] (Rate 0.1250 kg/ha) it was 1.0; in series [3] (Rate 0.2500 kg/ha) it was 9.0. For the same compound, the “herbicidal effect rating ORYSAT” value in series [4] (Rate 0.0320 kg/ha) stood at 2.0; in series [4] (Rate 0.0620 kg/ha), 4.5; in series [4] (Rate 0.1250 kg/ha), 4.5; in series [4] (Rate 0.2500 kg/ha) it was 9.0. The “herbicidal effect rating, CYPSE” value was 0.0 in series [5] (Rate 0.0320 kg/ha), 0.0 in series [5] (Rate 0.0620 kg/ha), 2.0 in series [5] (Rate 0.1250 kg/ha) and 3.0 in series [5] (Rate 0.2500 kg/ha). Also, the “herbicidal effect rating, CYPIR” value in series [6] (Rate 0.0320 kg/ha) came to 0.0; in series [6] (Rate 0.0620 kg/ha) it was 1.0; in series [6] (Rate 0.1250 kg/ha) it was 4.0; in series [6] (Rate 0.2500 kg/ha), 9.0.
For `Cn1c(C(F)(F)F)cc(=O)n(-c2ccc3snc(C(=O)NS(=O)(=O)Cc4ccccc4)c3c2)c1=O` [Example 341, 1,2-Benzisothiazole-3-carboxamide, N-(benzylsulfonyl)-5-[3,6-dihydro-3-methyl-2,6-dioxo-4-(trifluoromethyl)-1(2H)-pyrimidinyl]-], the “herbicidal effect rating, MOOVA” value in series [1] (Rate 0.0320 kg/ha) is 7.0; in series [1] (Rate 0.0620 kg/ha), 9.0; in series [1] (Rate 0.1250 kg/ha), 9.0; in series [1] (Rate 0.2500 kg/ha), 9.0. The “herbicidal effect rating, ECHORC” value in series [2] (Rate 0.0320 kg/ha) amounted to 3.0; in series [2] (Rate 0.0620 kg/ha) it was 5.5; in series [2] (Rate 0.1250 kg/ha), 8.0; in series [2] (Rate 0.2500 kg/ha), 8.5. Besides, the “herbicidal effect rating, SAGPY” value in series [3] (Rate 0.0320 kg/ha) was found to be 1.0; in series [3] (Rate 0.0620 kg/ha), 4.5; in series [3] (Rate 0.1250 kg/ha) it was 4.5; in series [3] (Rate 0.2500 kg/ha) it was 4.5. For the same compound, the “herbicidal effect rating ORYSAT” value came to 1.5 in series [4] (Rate 0.0320 kg/ha), 2.5 in series [4] (Rate 0.0620 kg/ha), 3.0 in series [4] (Rate 0.1250 kg/ha) and 3.5 in series [4] (Rate 0.2500 kg/ha). Besides, the “herbicidal effect rating, CYPSE” value is listed as 0.0 in series [5] (Rate 0.0320 kg/ha), 0.0 in series [5] (Rate 0.0620 kg/ha), 2.5 in series [5] (Rate 0.1250 kg/ha) and 3.5 in series [5] (Rate 0.2500 kg/ha). The “herbicidal effect rating, CYPIR” value in series [6] (Rate 0.0320 kg/ha) turned out to be 1.0; in series [6] (Rate 0.0620 kg/ha), 2.0; in series [6] (Rate 0.1250 kg/ha), 3.5; in series [6] (Rate 0.2500 kg/ha) it was 4.0.

These data come from patent publication EP0908457B1, “3-(1,2-benzisothiazol- and isoxazol-5-Y1)-2,4(1H,3H)-pyrimidinedione or thione and 3-(1,2-benzisothiazol- and isoxazol-5-y1)-4(3H)-pyrimidinone or thione herbicidal agents” (BASF AKTIENGESELLSCHAFT, priority 1997, dated 1999).
